These results are taken from patent US4442103A, “Treating sedation with 1-(3-substituted-2-pyridinyl) piperazines” (Merck & Co., Inc., priority 1982, dated 1984).

The term Ki denotes the equilibrium dissociation constant of an inhibitor or competing ligand from its target.

One test relates to α2-adrenergic receptor. Type of test: binding, calf. The note with it: for α1/α2 (ratio of Ki): Ki α1 / Ki α2, calf cerebral cortex; for Ki: [3H] clonidine binding site, calf cerebral cortex.
A further test has as its target α1-adrenergic receptor. The test can be described thus: α1-adrenergic receptor binding ([3H] prazosin binding site). The note with it: calf cerebral cortex. On the procedure: Extent of binding to the α1 -adrenergic receptor was determined by the method of Greengrass and Bremner, Eur. J. Pharmacol., 55, 323 (1979) and is expressed in Table II as Ki, representing the affinity of each compound for the [^3 H] prazosin binding site in calf cerebral cortex.

The next test deals with norepinephrine reuptake. The note with it: cited from earlier work.
Test [1] relates to α1- or α2-adrenergic receptors. The note with it: cited from earlier work.
Test [2] relates to locomotor depressant effects of methyldopa. The note with it: rats; cited from earlier work.
The test system of test [3] is clonidine-induced sedation. The note with it: man; cited from earlier work.
Test [4] has as its system sedation produced by clonidine. The note with it: in vivo; cited from earlier work.

Molecules are shown by their SMILES.

As to `Cl.Cl.Ic1cccnc1N1CCNCC1` [Compound 1, 1-(3-Iodo-2-pyridinyl)piperazine Dihydrochloride], the “α1/α2 (ratio of Ki)” value in the test on α2-adrenergic receptor is reported as 38. The results for the Ki on α2-adrenergic receptor and on α1-adrenergic receptor were 42 nM and 1600 nM, respectively.

For `CN1CCN(c2ncccc2Br)CC1` [Compound 2], the “α1/α2 (ratio of Ki)” value with α2-adrenergic receptor is on record as 55. In addition, the Ki at α2-adrenergic receptor is 2.9 nM; on α1-adrenergic receptor it was 160 nM.

Consider `FC(F)(F)c1cccnc1N1CCNCC1` [Compound 3], for which, in the test on α2-adrenergic receptor, the “α1/α2 (ratio of Ki)” value is reported as 29. Further, the Ki on α2-adrenergic receptor is 97 nM; on α1-adrenergic receptor it was 2850 nM.

Turning to `c1ccc(N2CCNCC2)nc1` [Compound 4], in the test with α2-adrenergic receptor, the “α1/α2 (ratio of Ki)” value came to 65. The results for the Ki at α2-adrenergic receptor and at α1-adrenergic receptor were 37 nM and 2400 nM, respectively.

For `O=[N+]([O-])c1cccnc1N1CCNCC1` [Compound 5, 1-(3-Nitro-2-pyridinyl)piperazine], in the test with α2-adrenergic receptor, the “α1/α2 (ratio of Ki)” value was 146 and the Ki is 26 nM. This compound yielded a Ki at α1-adrenergic receptor of 3800 nM.

As for `CN1CCN(c2ncccc2F)CC1` [Compound 6], in the test with α2-adrenergic receptor, the “α1/α2 (ratio of Ki)” value worked out at 98 and the affinity, expressed as Ki, was 5 nM. This compound also registered a Ki at α1-adrenergic receptor of 490 nM.

For `CN1CCN(c2ncccc2Cl)CC1` [Compound 7], the Ki amounted to 2.7 nM at α2-adrenergic receptor and 215 nM at α1-adrenergic receptor.

Consider `CN1CCN2c3ccccc3Cc3ccccc3C2C1` (centres unmarked) [Mianserin], for which the “in vivo norepinephrine reuptake inhibiting properties” value in the test with norepinephrine reuptake is on record as “minimal”. Besides, in test [1], the “blockade of α2-adrenergic receptors” value is “blocks α2 -adrenergic receptors”. The “selectivity for α1- or α2-adrenergic receptors” value in test [1] (in vivo blockade suggested at about the same dose) was “fails to exhibit any important selectivity”.

As for `COC(=O)[C@@H]1[C@H]2C[C@H]3c4[nH]c5ccccc5c4CCN3C[C@@H]2CC[C@@H]1O` [yohimbine], in test [2], the “effect on locomotor depressant effects of methyldopa” value was “antagonizes”. The “effect on clonidine-induced sedation” value in test [3] is “reduce clonidine-induced sedation in man”. Moreover, the “effect on sedation produced by clonidine” value in test [4] was “antagonizes the sedation produced by clonidine”.
